# Assay results as given in patent publication US6420377B1, “Covalent conjugates of topoisomerase I and topoisomerase II inhibitors” (priority 1997, dated 2002).
# Like-named read-outs stand apart in the source and are kept apart here.
# Assays:
# [1] = test system: KB oral carcinoma cell line; experiment: Cell growth inhibition, KB cells; type: cell-based
# Method: (§1) The KB oral carcinoma cell line was provided by M. Fisher (Pharmacology, UNC- Chapel Hill). The isolation and properties of the etoposide-resistant sub-clone, KB-7d, and the camptothecin-resistant line, KB-CPT100, were reported in P. Ferguson et al., Cancer Res. 48:5956 (1988) and D. Beidler et al., Cancer Res. 56:345 (1996), and are discussed briefly hereinafter. The vincristine-resistant sub-clone, KB-VIN20c was isolated by selection in 20 nM vincristine and over-expresses the P-glycoprotein multidrug-resistant drug-efflux protein (unpublished results).
# (§2) All cell types were propagated in RPMI-1640 medium supplemented with 5% (v/v) fetal calf serum and 100 μg/mL kanamycin at 37° in a humidified atmosphere of 5% CO2 and 95% air. Over the course of the experiments, doubling times of cells were 24±4 hours.
# (§3) Fifty thousand cells were plated in 25 cm^2 flasks (Falcon, N.J., USA) and incubated overnight. The medium was supplemented with test compounds at various concentrations and cultures were incubated for 48-51 hours (for about two cell doublings) before cells were trypsinized and then counted using a hemacytometer. The number of treated cells which excluded 0.5% (v/v) trypan blue were expressed as a percentage of the growth measured in control cultures. Compounds were evaluated in at least two independent experiments and the combined results were analyzed as scatter plots with dose-responses being computer fitted by linear regression at the 95% confidence level using Graphpad Software., San Diego, Calif. The IC50 concentrations which inhibited cell growth by fifty percent relative to control were interpolated from graphed results.
# KB-7d [2] = experiment: Cell growth inhibition, etoposide-resistant KB-7d cells; type: cell-based; settings: KB7D, read-out: Cell Growth Inhibition IC50
# Method: as §1, §2, §3
# KB-CPT100 [3] = experiment: Cell growth inhibition, camptothecin-resistant KB-CPT100 cells; type: cell-based
# Method: as §1, §2, §3
# KB-VIN20c [4] = experiment: Cell growth inhibition, vincristine-resistant KB-VIN20c cells; type: cell-based; settings: read-out: Cell Growth Inhibition IC50
# Method: as §1, §2, §3
# KB = experiment: Cytotoxicity measured as reduced plating efficiency, KB cells; type: cell-based; settings: Homo sapiens, 3 h, read-out: Cytotoxicity Measured as Reduced Plating Efficiency IC50
# Method: (§4) LC50 concentrations were determined by treating cells for three hours with different concentrations of compounds then replating cells to measure colony formation and plating efficiency as the percent of total cells forming colonies. Compounds were evaluated in three independent experiments. The plating efficiences of untreated cells varied between experiments with values ranging from 14-31% for KB, 31-56% for KB-7d, 16-38% for KB-VIN20c and 21-36% for KB-CPT100. A concentration of compound that reduced plating efficiency by fifty percent relative to control, the LC50, was determined graphically as stated in the preceding section.
# KB-7d [5] = experiment: Cytotoxicity measured as reduced plating efficiency, KB-7d cells; type: cell-based
# Method: as §4
# KB-CPT100 [6] = experiment: Cytotoxicity measured as reduced plating efficiency, KB-CPT100 cells; type: cell-based; settings: KBCPT100, 3 h, read-out: Cytotoxicity Measured as Reduced Plating Efficiency IC50
# Method: as §4
# KB-VIN20c [7] = experiment: Cytotoxicity measured as reduced plating efficiency, KB-VIN20c cells; type: cell-based; settings: 3 h, read-out: Cytotoxicity Measured as Reduced Plating Efficiency IC50
# Method: as §4
# [8] = test system: calf thymus DNA topoisomerase II; experiment: In vitro topoisomerase-DNA cleavage assay, topoisomerase II; type: biochemical
# Text: Calf thymus DNA topoisomerases were purchased from TopoGen Inc., Columbus, Ohio. Tritium-labeled thymidine (60-90 ci/mmol) for labeling cellular DNA to measure protein-DNA complexes and αP^32-labeled deoxycytidine triphosphate (>3000 ci/mmol) were obtained from ICN Biochemicals Inc., Irvine, Calif. The latter radiochemical was used with a T4-DNA polymerase polymerase-labeling system from BRL Inc., Gaithersburg, Md., to prepare P^32-plasmid DNA for in vitro cleavage assays. Tissue culture reagents were purchased from Sigma Chemical Co., St. Louis, Mo., and Gibco-BRL Inc. All other chemicals were reagent grade.
# The detailed method used to measure stimulation of cleavable complexes in vitro is described in K. Bastow et al., Planta Med. 59:195 (1993).. Briefly, incubated cleavage reactions containing one nanogram of P^32 end-labeled linearized PBR322 DNA, one unit of enzyme and test compound were divided equally for analysis. One portion was prepared for gel electrophoresis with subsequent autoradiography and protein-DNA complexes in the remaining sample were analyzed using the potassium-SDS precipitation method and scintillation spectrometry.
# KB cells [9] = experiment: Cellular protein-DNA complex formation (potassium-SDS precipitation); type: cell-based; settings: high concentration (7.5-60 micromolar); one hour
# Method: Stimulation of intracellular protein associated DNA breaks was measured using a standard assay method described in Y. Kashiwada et al., J. Pharm. Sci. 82:487 (1993). Briefly, KB cells were labeled overnight with tritiated thymidine (0.5 μCi/mL), chased for two hours and then treated in triplicate with test compounds at various concentrations. After one hour, samples were processed and protein-DNA complexes were measured as potassium-SDS precipitable radioactivity.
# KB cells [10] = experiment: Gel lysis assay for genomic DNA breaks; type: cell-based
# Method: One million KB cells in 25cm^2 flasks were treated for three hours with test compound, the medium was discarded then cells were scraped into ice-cold PBS and harvested by centrifugation. Washed cell pellets were resuspended in eighty microliters of a 37° C. gel solution [1% (w/v) low-melting point agarose in PBS], and were cast in a mold and refrigerated to form 6×7×2 mm agarose plugs. Plugs of cells were incubated in lysis-digestion buffer (0.4M EDTA, 0.01 Tris (HCl, pH 8.0), 1% (w/v) N-lauryl-sarcosine and 100 μg/mL proteinase K) at 37° overnight or 50° for one hour. The treated plugs were equilibrated in TBE buffer and placed against a gel comb in a horizontal gel casting tray (BRL Inc., H4 system format). A 55° gel solution containing 0.8% (w/v) agarose in TBE was poured and allowed to gel. Electrophoresis was at 3.5 v/cm (measured between electrodes) for 16 hours at 4° without buffer re-circulation. The gel was stained with 1 μg/mL ethidium bromide in water, treated overnight at 25° C. with RN'ase (1 μg/mL), and then photographed under UV illumination. For the reversibility studies, treated cells were washed with PBS and incubated with fresh media for an additional hour before harvesting for plug preparation and gel analysis.
smiles,measurement,setting,value
CC[C@@]1(O)C(=O)OCc2c1cc1n(c2=O)Cc2c-1nc1ccccc1c2/C=N/c1ccccc1N[C@@H]1c2cc3c(cc2[C@@H](c2cc(OC)c(O)c(OC)c2)[C@H]2C(=O)OC[C@@H]21)OCO3 [Compound S-2],activity at inhibiting KB cell growth relative to C-1,[1],about ten-fold more active
same,IC50,"[1]; Homo sapiens, KB, read-out: Cell Growth Inhibition IC50",14 nM
same,IC50,KB-7d [2],15 nM
same,IC50,"KB-CPT100 [3]; KBCPT100, read-out: Cell Growth Inhibition IC50",85 nM
same,"cross-resistance of KB-CPT100 cells, growth inhibition",KB-CPT100 [3]; relative to KB,only six-fold cross-resistant
same,IC50,KB-VIN20c [4],27 nM
same,IC50,KB,4000 nM
same,cross-resistance of KB-7d cells to cytotoxic action,KB-7d [5],appeared cross-resistant
same,IC50,"KB-7d [5]; KB7D, 3 h, read-out: Cytotoxicity Measured as Reduced Plating Efficiency IC50",> 15000 nM
same,IC50,KB-CPT100 [6],2000 nM
same,IC50,KB-VIN20c [7],4600 nM
same,"stimulation of in vitro topoisomerase II cleavable-complexes, dose behaviour",[8],dose-inhibitory
same,stimulation of topoisomerase II-induced DNA cleavage over enzyme control,[8]; fifty micromolar,only marginal stimulation
same,stimulation of topoisomerase II-induced DNA cleavage over enzyme control,[8]; one micromolar,only marginal stimulation
same,stimulation of topoisomerase II-induced DNA cleavage over enzyme control,[8]; ten micromolar,~4 fold
same,cleavable complex formation with topoisomerase II,"[8]; ten micromolar, FIG. 1A",induced cleavable complexes
same,topoisomerase II cleavable complex activity relative to unconjugated components,"[8]; ten micromolar, S-1 vs 3, 4a, S-2 vs 3, 4b",reduced about two-fold
same,"intracellular protein-DNA complex formation, dose behaviour",KB cells [9],not dose-inhibitory at high concentration
same,genomic DNA fragmentation,KB cells [10],marginal DNA fragmentation
same,genomic DNA fragmentation,"KB cells [10]; twenty-fold higher concentration (3 at sixteen micromolar), three hours",high molecular mass genomic fragments were detected
same,reversal of genomic DNA fragmentation upon drug removal,"KB cells [10]; twenty-fold higher concentration, additional hour in fresh media",only partially restored
